Where two headings read alike, the source gives them in different places.
What was measured:
[1] = system: intact hearts from male Sprague-Dawley rats; experiment: Langendorf isolated perfused heart, simulated ischemia 20 minutes then reoxygenation; set-up: species or system rat; details: for % fibr.: isolated rat hearts, 10 min drug treatment, 20 min ischemia; for # fibrillating: number of hearts fibrillating out of Total #
Excerpt: The tests carried out by Dr. Rodgers used a widely-used protocol known as a "Langendorf" preparation, which involves removing intact hearts from sacrificed lab animals (male Sprague-Dawley rats were used), and perfusing the hearts with liquids containing controlled quantities (or deficits) of oxygen and glucose for fixed periods of time. […] The left atrium is filled at 15 cm H2 O pressure, and the left ventricle ejects into a buffer-filled column against a pressure which equates to 72 mm Hg, except during ischemic periods. The perfusate was Krebs-Henseleit buffer with HCO3 (25 mM), Ca^++ (2.2 mM), and glucose (10 mM). […] Pefusate and ambient temperatures were held at 37° C. and the hearts were allowed to beat spontaneously.
Following stabilization and treatment, the hearts were subjected to simulated ischemia for 20 minutes; no oxygen was added to the perfusate during this period. When the ischemic period ended, oxygen was again added to the perfusion buffer, and the following parameters were measured over a period of 10 minutes:
LVPP--left ventricular pulse pressures (time-dependent pressures, calculated as peak pressure minus diastolic pressure, in mm Hg, millimeters of mercury column)
LVEDP--left ventricular end diastolic pressure (i.e, time-dependent pressures as the ventricle relaxed during diastolic filling, in mm Hg)
CFR--coronary flow rate (mL/min)
HR--spontaneous heartbeat rate (beats/min)
ECG--electrocardiogram (surface potential, in mV)

[2] = target: adenosine deaminase (ADA); details: read-out: Ki value (ADA); background statement; cited from earlier work
[3] = mammalian bloodstream; cited from earlier work
[4] = target: T1, calf intestinal ADA (Type III, Sigma Chemical Company) (Bos taurus, UniProt P56658); experiment: Testing for ADA inhibition, direct spectrophotometric assay at 265 nm; assay type: biochemical; details: for Ki: calf intestinal ADA, 30° C.; for inhibition of ADA activity (in words): tested as in Example 2
T1 construct: purchased Sigma Chemical Company Type III; host or cells: calf intestine
T1 sequence (P56658 1-363): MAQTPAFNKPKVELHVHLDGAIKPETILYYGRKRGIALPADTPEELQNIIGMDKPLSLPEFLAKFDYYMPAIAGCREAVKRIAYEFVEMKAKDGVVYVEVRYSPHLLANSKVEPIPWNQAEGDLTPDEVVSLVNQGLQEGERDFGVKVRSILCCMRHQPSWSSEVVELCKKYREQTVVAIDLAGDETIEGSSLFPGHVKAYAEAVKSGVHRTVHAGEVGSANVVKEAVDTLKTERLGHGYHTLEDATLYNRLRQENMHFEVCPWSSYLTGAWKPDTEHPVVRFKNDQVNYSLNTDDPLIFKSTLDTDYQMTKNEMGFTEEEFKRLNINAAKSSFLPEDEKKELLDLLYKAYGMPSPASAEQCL
Description: Compounds [10] (the 9-hydroxy analog), [23] (the 8-hydroxy analog), and [14] (the 8,9-dihydroxy analog) were tested for ADA inhibition activity, using calf intestinal ADA (Type III, Sigma Chemical Company) measured at 30° C. by direct spectrophotometric assays at 265 nm, as described in Harriman et al 1992.
Several of the analogs described in Example 3 were tested for inhibition of the adenosine deaminase (ADA) enzyme, using the procedures described in Example 2.

[5] = animals; cited from earlier work
[6] = isolated rat hearts after ischemia
[7] = read-out: Ki value (ADA inhibition)
[8] = read-out: Ki values (ADA inhibition)

Structure (SMILES) | % fibr. [1] | # fibrillating [1] | Ki [4, 7] | Ki [4, 8] | inhibition of ADA activity (in words) [4] | further results
CCCCCC[C@H]([C@H](C)O)n1cnc2c(N)ncnc21 (relative stereo) [EHNA, erythro-hydroxynonyladenine] | 14% | 1 | – | – | – | LVPP (left ventricular pulse pressure) after ischemia [1, 6]: moderate increase; coronary flow rate after ischemia [1, 6]: moderate increase; incidence of fibrillation (in words) [1, 6]: reduced the incidence of fibrillation; Ki [2]: ~4 nM; metabolism and clearance from bloodstream [3]: metabolized and cleared from the mammalian bloodstream fairly rapidly
C[C@H](O)[C@@H](CCCCC(O)CO)n1cnc2c(N)ncnc21 (single isomer, unassigned) [Compound 14] | – | – | 6 nM | 6 nM | effective inhibitor of ADA activity | –
CC(O)CCCC[C@H]([C@H](C)O)n1cnc2c(N)ncnc21 (single isomer, unassigned) [Compound 23] | – | – | 11 nM | 11 nM | shown to inhibit ADA activity | –
C[C@H](O)[C@@H](CCCCCCO)n1cnc2c(N)ncnc21 [Compound 10] | 11% | 1 | 3.4 nM | 3.4 nM | effective inhibitor of ADA activity | LVPP (left ventricular pulse pressure) after ischemia [1, 6]: moderate increase; coronary flow rate after ischemia [1, 6]: moderate increase; incidence of fibrillation (in words) [1, 6]: reduced the incidence of fibrillation; LVEDP (left ventricular end diastolic pressure), protection against muscle stiffening ([1]; isolated rat hearts after ischemia, compared with EHNA): significantly higher level of protection against muscle stiffening than unmodified EHNA
C[C@H](O)[C@@H](CCCCCCOC(=O)c1ccccc1)n1cnc2c(N)ncnc21 [Compound 25, 9-[9-Benzoyloxy-2(S)-hydroxy-3(R)-nonyl]adenine] | – | – | – | – | potency in the desired range | –
C[C@H](O)[C@@H](CCCCCCCl)n1cnc2c(N)ncnc21 [Compound 29, 9-[9-chloro-2(S)-hydroxy-3(R)-nonyl]adenine] | – | – | – | 3.7 nM | potency in the desired range | –
COC(=O)CCCCC[C@H]([C@H](C)O)n1cnc2c(N)ncnc21 [Compound 31] | – | – | – | 5 nM | potency in the desired range | –
C=CCCCC[C@H]([C@H](C)O)n1cnc2c(N)ncnc21 [Compound 32, 9-[2(S)-hydroxy-3(R)-non-8-enyl]adenine] | – | – | – | – | potency in the desired range | Ki ([4]; Ki values (ADA inhibition)): 2.5 nM
CCN(CC)C(=S)SSC(=S)N(CC)CC [Disulfiram, disulfiram] | 40% | 2 | – | – | – | –
OC[C@H]1O[C@@H](n2cnc3c2NC=NC[C@H]3O)C[C@@H]1O [dCF, deoxycoformycin] | – | – | – | – | – | toxic side effects [5]: serious and unpredictable toxic side effects in some animals

From patent publication US5491146A, “Hydroxylated erythro-hydroxynonyladenines and related analogs” (Cypros Pharmaceutical Corporation, priority 1994, dated 1996)
